{
  "source": "paper PMC11783601",
  "about": "“Analogue-Sensitive Inhibition of Histone Demethylases Uncovers Member-Specific Function in Ribosomal Protein Synthesis” (Journal of the American Chemical Society, 2025)",
  "key": {"KDM4A-F185A [1]": {"molecular_target": "T1, KDM4A-F185A (Homo sapiens, UniProt O75164, F185A)", "T1 construct": "human KDM4A-jmjC domain (catalytic domain of KDM4A); 6xHis (N); host or cells: E. coli BL21 (DE3)", "T1 sequence (O75164 142-308 F185A limits assumed)": "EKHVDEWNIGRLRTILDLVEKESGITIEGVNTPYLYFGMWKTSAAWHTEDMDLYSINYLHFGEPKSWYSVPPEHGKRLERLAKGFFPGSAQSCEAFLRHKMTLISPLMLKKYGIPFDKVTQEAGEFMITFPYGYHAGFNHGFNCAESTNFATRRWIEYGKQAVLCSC", "test": "Coupled fluorescence end-point assay for IC50", "type": "biochemical", "protocol": "To probe the efficacy of bulky NOGs against the mutant, the inhibitory constant at half-maximal (IC50) was determined by the coupled enzymatic assay using increasing amounts of the NOG analogue at fixed concentrations of cofactor and substrate.\nNADH (ACROS, cat #124530050) was added to assay buffer (50 mM HEPES pH 8, 50 µM (NH4)2Fe(SO4)2, 1 mM L-ascorbic acid, 1 mM NAD+, 200 nM FDH, and 1 µM KDM4A) in varying concentrations (0-10 µM). The experiments were performed in 384-well white Corning plates. The fluorescence intensity was measured with excitation = 340 nm and emission = 490 nm on a TECAN Infinite M1000Pro. Triplicate values were taken for each concentration.\nThe set up and analysis for IC50 of L-Leu NOG against KDM4A F185A enzyme was similar to that described in the coupled fluorescence assay section, but adjusted to function as an end point assay. The assay composed of an enzyme cocktail (50mM HEPES pH 8.0, 75 µM (NH4)2Fe(SO4)2, 2 mM L-ascorbic acid, 1 mM NAD+, 200 nM FDH, 3 µM wild type KDM4A or KDM4A-F185A, and varying concentration of compounds (NOGs 6, 9 and 10) and a substrate cocktail (200 µM […]\n2OG and 60 µM H3K9me3 peptide). […]\nIC50 measurements were performed in triplicates. The data was plotted in GraphPad Prism to the equation Y=Bottom + (Top-Bottom)/(1+10^(X-LogIC50)), where Y = % Activity, and Bottom and Top being the lower and upper most plateaus of percent activity, respectively. […]"}, "KDM4A-F185A [2]": {"molecular_target": "T1, KDM4A-F185A", "test": "MALDI-MS end-point demethylase assay on H3K9me3 peptide", "type": "biochemical", "conditions": "H3K9me3 peptide, 200 µM 2OG, fixed concentration of NOG analogue", "source_text": "To develop an appropriate inhibitor, we selected N-oxalyl glycine (NOG, 2) scaffold because of its structural similarity with 2OG and the ability to inhibit 2OG-utilizing enzymes including KDMs (Figure 1C).[29]−[31] Substituting −CH2– at C3 of 2OG with −NH– in NOG prevents its oxidative decarboxylation by KDMs, making the inhibitor cofactor-competitive. […] We synthesized a panel of eight NOG analogues (3–10), derived from L-amino acids, carrying varied steric substituents at C4, with the reasoning that a bulky substituent at C4 would selectively fit into the expanded pocket of F185A over wild type KDM4A (Figures 2B and S1–S6, Schemes S1 and S2). The inhibitory effect of each compound was determined based on the extent of enzyme-catalyzed demethylation of a canonical peptide substrate corresponding to the N-terminus of histone 3 carrying trimethylated lysine at position 9 (H3K9me3). […] Such orthogonal inhibition of the engineered demethylase constitutes a powerful chemical probe to study the functions of a specific member of an enzyme family without issues of off-target activity. […]\nassay (Biorad) kit with BSA concentrations as a standard. […]\n8. Demethylase activity of the wild type and mutant KDM4 proteins on peptide substrate To monitor enzymatic activity, a demethylase activity assay was optimized and then observed through MALDI-TOF.7 Each histone demethylase assay sample included either wild type or mutant enzyme (10µM KDM4A, 7.5µM KDM4C, 10µM KDM4D, or 1µM KDM4E), 10 µM peptide, 200 µM 2OG, 50 mM Tris pH 8, […], 0-200µM NOG analogue, and 2 mM L-ascorbic acid with a total assay volume of 10 µL. Fe(II) supplement and L-ascorbic acid […]\nLastly, the 2OG and peptide were […]\npositive mode and analyzed on Bruker FlexAnalysis software. The percent demethylated peptide […]\nthe multiple demethylation events on the peptide. […]\nvarying concentrations (0-10 µM). […] The fluorescence intensity was measured with excitation = 340 nm and emission = 490 nm on a TECAN Infinite M1000Pro. […]\nThe set up and analysis for IC50 of L-Leu NOG against KDM4A F185A enzyme was similar to that described in the coupled fluorescence assay section, but adjusted to function as an end point assay. […]\nand varying concentration of compounds (NOGs 6, 9 and 10) and a substrate cocktail (200 µM 2OG and 60 µM H3K9me3 peptide). Different concentrations of NOG 6 were measured at one time point ranging for 1-5 hours. For 9 and 10, the same set-up remained, but enzymatic activity was measured via MALDI-TOF analysis, and relative activity and inhibition was calculated for different NOG concentrations as described above. […]\nand analyzed on Bruker FlexAnalysis software. The percent demethylated peptide was calculated by first multiplying the K27me1 peak by 2 and the K27me0 peak by 3 to account for the multiple"}},
  "data": [
    {"smiles": "CC(C)CC(NC(=O)C(=O)O)C(=O)O", "note": "(stereo not shown) [compound 6, N-oxalyl leucine]", "values": [
      {"measurement": "IC50", "setting": "KDM4A-F185A [1]; dose-dependent inhibition of F185A, 200 µM 2OG, 60 µM H3K9me3 peptide", "result": "700 ± 100", "unit": "nM"},
      {"measurement": "IC50", "setting": "KDM4A-F185A [1]; time-dependent inhibition of F185A, 1 hour", "result": "700 ± 100", "unit": "nM"},
      {"measurement": "IC50", "setting": "KDM4A-F185A [1]; time-dependent inhibition of F185A, 2 hour", "result": "1200 ± 200", "unit": "nM"},
      {"measurement": "IC50", "setting": "KDM4A-F185A [1]; time-dependent inhibition of F185A, 3 hour", "result": "1500 ± 300", "unit": "nM"},
      {"measurement": "IC50", "setting": "KDM4A-F185A [1]; time-dependent inhibition of F185A, 4 hour", "result": "1800 ± 500", "unit": "nM"},
      {"measurement": "IC50", "setting": "KDM4A-F185A [1]; time-dependent inhibition of F185A, 5 hour (text: monitored over more than 5 h)", "result": "2200 ± 500", "unit": "nM"},
      {"measurement": "inhibition of F185A mutant demethylase activity (MALDI-MS)", "setting": "KDM4A-F185A [2]", "result": "complete inhibition"}
    ]}
  ]
}
